Biological target: T1, αvβ3 (vitronectin receptor) (Homo sapiens, UniProt P05106+P06756)
T1 construct: Human placenta or human platelet αvβ3 (0.1-0.3 mg/mL) in buffer T; from tissue; host or cells: human placenta or human platelets
Experiment: Solid-Phase [3H]-SK&F-107260 Binding to αvβ3
Details: human placenta or human platelet αvβ3; competition with 5.0 nM [3H]-SK&F-107260; Ki=IC50/(1+L/Kd)
Protocol: 0.1-0.2 μg of αvβ3 was added per well. The plates were incubated overnight at 4° C. At the time of the experiment, the wells were washed once with buffer A and were incubated with 0.1 mL of 3.5% bovine serum albumin in the same buffer for 1 hr at room temperature. Following incubation the wells were aspirated completely and washed twice with 0.2 mL buffer A.
Compound were dissolved in 100% DMSO to give a 2 mM stock solution, which was diluted with binding buffer (15 mM Tris-HCl (pH 7.4), 100 mM NaCl, 1 mM CaCl2, 1 mM MnCl2, 1 mM MgCl2) to a final compound concentration of 100 μM. This solution is then diluted to the required final compound concentration.
The plates were incubated for 1 hr at room temperature. Following incubation the wells were aspirated completely and washed once with 0.2 mL of ice cold buffer A in a well-to-well fashion.

T1 sequence (P06756 31-889 limits assumed): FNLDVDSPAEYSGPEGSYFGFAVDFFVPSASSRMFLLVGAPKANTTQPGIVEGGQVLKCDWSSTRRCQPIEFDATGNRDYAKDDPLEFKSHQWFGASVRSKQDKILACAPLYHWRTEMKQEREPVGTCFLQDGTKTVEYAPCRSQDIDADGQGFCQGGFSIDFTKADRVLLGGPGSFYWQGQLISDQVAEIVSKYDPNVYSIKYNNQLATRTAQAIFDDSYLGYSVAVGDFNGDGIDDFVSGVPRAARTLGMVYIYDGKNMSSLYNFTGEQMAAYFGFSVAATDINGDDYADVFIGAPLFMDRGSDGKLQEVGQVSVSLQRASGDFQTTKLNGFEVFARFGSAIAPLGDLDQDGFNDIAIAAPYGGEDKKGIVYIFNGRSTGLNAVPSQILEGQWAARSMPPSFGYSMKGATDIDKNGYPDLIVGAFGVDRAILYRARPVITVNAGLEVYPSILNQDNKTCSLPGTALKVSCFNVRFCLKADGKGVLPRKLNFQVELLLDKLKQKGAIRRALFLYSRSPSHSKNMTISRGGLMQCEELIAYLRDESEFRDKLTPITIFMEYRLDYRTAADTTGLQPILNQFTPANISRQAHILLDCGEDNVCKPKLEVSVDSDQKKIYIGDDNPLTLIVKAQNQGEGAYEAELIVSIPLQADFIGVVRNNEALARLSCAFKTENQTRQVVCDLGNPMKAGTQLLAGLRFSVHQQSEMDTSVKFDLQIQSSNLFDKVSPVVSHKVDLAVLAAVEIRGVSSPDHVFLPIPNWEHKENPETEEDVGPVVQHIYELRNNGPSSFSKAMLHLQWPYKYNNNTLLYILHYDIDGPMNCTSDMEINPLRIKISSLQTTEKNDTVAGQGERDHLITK
T1 sequence (P06756 891-1048 partner limits assumed): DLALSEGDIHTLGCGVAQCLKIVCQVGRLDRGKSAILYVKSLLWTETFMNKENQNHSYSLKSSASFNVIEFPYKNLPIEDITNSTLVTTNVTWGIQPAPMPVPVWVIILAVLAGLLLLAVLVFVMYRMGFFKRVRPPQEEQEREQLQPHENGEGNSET
T1 sequence (P05106 27-788): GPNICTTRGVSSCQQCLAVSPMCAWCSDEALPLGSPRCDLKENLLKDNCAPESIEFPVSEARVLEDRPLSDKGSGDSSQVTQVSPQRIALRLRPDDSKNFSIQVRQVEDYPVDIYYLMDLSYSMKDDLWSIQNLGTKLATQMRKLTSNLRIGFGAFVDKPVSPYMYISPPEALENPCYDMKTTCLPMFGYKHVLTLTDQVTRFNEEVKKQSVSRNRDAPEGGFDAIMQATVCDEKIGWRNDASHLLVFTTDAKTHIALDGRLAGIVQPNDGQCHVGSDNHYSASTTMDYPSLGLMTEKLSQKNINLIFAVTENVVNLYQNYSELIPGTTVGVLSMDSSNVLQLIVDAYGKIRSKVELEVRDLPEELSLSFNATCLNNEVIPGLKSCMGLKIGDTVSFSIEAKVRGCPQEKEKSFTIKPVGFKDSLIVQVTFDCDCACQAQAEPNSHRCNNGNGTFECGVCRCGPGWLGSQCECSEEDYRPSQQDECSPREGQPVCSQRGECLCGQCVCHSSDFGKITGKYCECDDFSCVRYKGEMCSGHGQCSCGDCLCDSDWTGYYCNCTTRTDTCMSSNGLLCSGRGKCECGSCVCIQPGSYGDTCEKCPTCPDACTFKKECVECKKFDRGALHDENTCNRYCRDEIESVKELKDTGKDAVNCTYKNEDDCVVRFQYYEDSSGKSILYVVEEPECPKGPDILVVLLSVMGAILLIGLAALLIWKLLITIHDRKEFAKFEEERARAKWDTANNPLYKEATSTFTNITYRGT

O=C(O)C[C@@H]1Cc2ccc(OCCc3ccc4c(n3)NCCC4)cc2Cc2ccccc21 [Example 1, (S)-10,11-dihydro-3-[2-(5,6,7,8-tetrahydro-1,8-naphthyridin-2-yl)-1-ethoxy]-5H-dibenzo[a,d]cycloheptene-10-acetic acid]
Ki: ~1.7 nM
